Laboratory results reported in patent publication US12479856B2, “Pharmaceutical compounds for the treatment of complement mediated disorders” (Achillion Pharmaceuticals, Inc., priority 2019, dated 2025).

Target: T1, Human complement C1s enzyme (Homo sapiens, UniProt P09871)
T1 construct: purified from human serum, Complement Technology, Inc; purchased Complement Technology, Inc; host or cells: human serum (plasma-derived natural protein)
T1 sequence (P09871 438-688 limits assumed): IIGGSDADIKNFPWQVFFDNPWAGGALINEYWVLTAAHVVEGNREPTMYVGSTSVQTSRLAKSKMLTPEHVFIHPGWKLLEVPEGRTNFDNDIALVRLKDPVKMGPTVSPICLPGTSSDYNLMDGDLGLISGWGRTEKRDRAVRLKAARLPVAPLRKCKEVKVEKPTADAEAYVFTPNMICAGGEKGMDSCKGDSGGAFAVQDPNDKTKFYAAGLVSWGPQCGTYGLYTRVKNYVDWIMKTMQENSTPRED
T1 sequence (P09871 16-437 partner limits assumed): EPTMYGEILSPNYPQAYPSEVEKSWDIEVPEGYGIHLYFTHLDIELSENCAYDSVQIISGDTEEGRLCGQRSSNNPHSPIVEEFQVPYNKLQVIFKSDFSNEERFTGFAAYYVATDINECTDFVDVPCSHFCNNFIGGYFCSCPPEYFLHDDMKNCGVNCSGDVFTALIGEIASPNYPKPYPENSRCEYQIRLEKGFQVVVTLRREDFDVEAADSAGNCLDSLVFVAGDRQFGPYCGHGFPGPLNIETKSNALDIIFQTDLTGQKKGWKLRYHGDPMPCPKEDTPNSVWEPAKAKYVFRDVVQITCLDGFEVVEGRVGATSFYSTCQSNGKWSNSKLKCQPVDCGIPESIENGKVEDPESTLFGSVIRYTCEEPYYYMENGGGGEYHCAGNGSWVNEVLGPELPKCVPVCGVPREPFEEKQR
Test: Human C1s Enzyme Assay
Format: biochemical
Settings: Table 2; C1s purified from human serum, 1.16 nM; substrate Z-L-Lys-SBzl; read-out: C1s Protease Activity
Procedure, shortened: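 Serum-purified human C1s (1.16 nM) preincubated 5 min at RT with compound in 50 mM Tris, 1 M NaCl, pH 7.5. Z-L-Lys-SBzl and DTNB (100 μM each) then added; A405 followed every 30 s for 30 min. IC50 from nonlinear regression of reaction rates versus compound concentration.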

Compared with `N=C(N)c1csc(CNC(=O)[C@@H]2CCCN2C(=O)CNC(=O)CCCCCc2ccccc2)c1` [Compound 81, (S)-N-((4-carbamimidoylthiophen-2-yl)methyl)-1-((6-phenylhexanoyl)glycyl)pyrrolidine-2-carboxamide], `CCCCCCC(=O)NCC(=O)N1CCC[C@H]1C(=O)NCc1cc(C(=N)N)cs1` [Compound 83, (S)-N-((4-carbamimidoylthiophen-2-yl)methyl)-1-(heptanoylglycyl)pyrrolidine-2-carboxamide] is higher in IC50: less than 100 nM for the first, 100 to 1000 nM for the second. The first is the more potent here.

Compared with `CCCCCC(=O)NCC(=O)N1CCC[C@H]1C(=O)NCc1cc(C(=N)N)cs1` [Compound 82, (S)-N-((4-carbamimidoylthiophen-2-yl)methyl)-1-(hexanoylglycyl)pyrrolidine-2-carboxamide], `CCCCCCCC(=O)NCC(=O)N1CCC[C@H]1C(=O)NCc1cc(C(=N)N)cs1` [Compound 84, (S)-N-((4-carbamimidoylthiophen-2-yl)methyl)-1-(octanoylglycyl)pyrrolidine-2-carboxamide] is lower in IC50: 100 to 1000 nM for the first, less than 100 nM for the second.

`CCCCCCCCC(=O)NCC(=O)N1CCC[C@H]1C(=O)NCc1cc(C(=N)N)cs1` [Compound 85, (S)-N-((4-carbamimidoylthiophen-2-yl)methyl)-1-(nonanoylglycyl)pyrrolidine-2-carboxamide] and `CCCCCCCCCC(=O)NCC(=O)N1CCC[C@H]1C(=O)NCc1cc(C(=N)N)cs1` [Compound 86, (S)-N-((4-carbamimidoylthiophen-2-yl)methyl)-1-(decanoylglycyl)pyrrolidine-2-carboxamide] cannot be ordered by IC50: less than 100 nM for the first, less than 100 nM for the second.

`C[C@H](OCc1ccccc1)[C@H](OCc1ccccc1)[C@@H](OCc1ccccc1)[C@H](CN(CC(=O)N1CC2(C[C@H]1C(=O)NCc1cc(C(=N)N)cs1)OCCO2)C(=O)OCc1ccccc1)OCc1ccccc1` [Compound 87, benzyl (2-((S)-8-(((4-carbamimidoylthiophen-2-yl)methyl)carbamoyl)-1,4-dioxa-7-azaspiro[4.4]nonan-7-yl)-2-oxoethyl)((2S,3S,4S,5S)-2,3,4,5-tetrakis(benzyloxy)hexyl)carbamate] and `C[C@H](OCc1ccccc1)[C@H](OCc1ccccc1)[C@@H](OCc1ccccc1)[C@H](CN(CC(=O)N1CC2(C[C@H]1C(=O)NCc1nc(C(=N)N)cs1)OCCO2)C(=O)OCc1ccccc1)OCc1ccccc1` [Compound 89, benzyl (2-((S)-8-(((4-carbamimidoylthiazol-2-yl)methyl)carbamoyl)-1,4-dioxa-7-azaspiro[4.4]nonan-7-yl)-2-oxoethyl)((2S,3S,4S,5S)-2,3,4,5-tetrakis(benzyloxy)hexyl)carbamate] cannot be ordered by IC50: greater than 1000 nM for the first, greater than 1000 nM for the second.

Same assay, conditions: Table 3; C1s purified from human serum, 1.16 nM; substrate Z-L-Lys-SBzl; read-out: C1s Protease Activity

Compared with `N=C(N)c1csc(NC(=O)[C@@H]2CC3(CN2C(=O)CNC(=O)c2ccc(Oc4ccccc4)cc2)OCCO3)c1` [Compound 91, (S)-N-(4-carbamimidoylthiophen-2-yl)-7-((4-phenoxybenzoyl)glycyl)-1,4-dioxa-7-azaspiro[4.4]nonane-8-carboxamide], `N=C(N)c1ccc(CNC(=O)[C@@H]2CC3(CN2C(=O)CNC(=O)c2ccc(Oc4ccccc4)cc2)OCCO3)s1` [Compound 92, (S)-N-((5-carbamimidoylthiophen-2-yl)methyl)-7-((4-phenoxybenzoyl)glycyl)-1,4-dioxa-7-azaspiro[4.4]nonane-8-carboxamide] is lower in IC50: greater than 1000 nM for the first, less than 100 nM for the second. The second is the more potent here.

`C[C@@]12C[C@@H]1N(C(=O)CNC(=O)c1ccc(Oc3ccccc3)cc1)[C@H](C(=O)NCc1cc(C#N)cs1)C2` [Compound 93, (1S,3S,5S)-N-((4-cyanothiophen-2-yl)methyl)-5-methyl-2-((4-phenoxybenzoyl)glycyl)-2-azabicyclo[3.1.0]hexane-3-carboxamide] and `C[C@@]12C[C@@H]1N(C(=O)CNC(=O)c1ccc(Oc3ccccc3)cc1)[C@H](C(=O)NCc1cc(/C(N)=N/O)cs1)C2` [Compound 94, (1S,3S,5S)-N-((4-((Z)-N′-hydroxycarbamimidoyl)thiophen-2-yl)methyl)-5-methyl-2-((4-phenoxybenzoyl)glycyl)-2-azabicyclo[3.1.0]heptane-3-carboxamide] cannot be ordered by IC50: greater than 1000 nM for the first, greater than 1000 nM for the second.
